Measured values reported in patent publication US5070092A, “Pyrroloindole derivatives related to DC-88A compound” (Kyowa Hakko Kogyo Co., Ltd., priority 1989, dated 1991).

Experiments:
[1] = prior art U.S. Pat. No. 4,169,888, EP-A-0154445, EP-A-0339681; cited from earlier work
Sarcoma 180 tumor cells = assay: Therapeutic Effect against Sarcoma 180 Tumor Cells; type: in vivo, male ddY-strain mice; conditions: intravenous, seven days after implantation
Protocol: Five male ddY-strain mice each having a weight of 18 to 20 g were used for each group as test animals, and 5×10^5 Sarcoma 180 tumor cells were implanted subcutaneously into the animals at the axilla. Ond day after the implantation, 0.2 ml of physiological saline containing a test compound in the concentration indicated in Table 3 was intravenously administered to each mouse. T/C [T: average tumor volume (mm^3) of the groups treated with the test compound, C: that of the control group which received an intravenous administration of 0.2 ml of physiological saline] was determined seven days after the implantation.

dd strain male mice = assay: Acute Toxicity Test; type: in vivo; conditions: intraperitoneal, 14 days after administration
Protocol: A test compound was intraperitoneally administered to dd strain male mice each weighing 20 ±1 g. MLD (the minimum lethal dose) was determined by observing the mortality for 14 days after the administration.

various bacteria = conditions: prior art WO 87/06265, EP-A-0351865, JP 139590/89; cited from earlier work
[2] = tested on: lymphocytic leukemia P388; conditions: prior art WO 87/06265, EP-A-0351865, JP 139590/89; cited from earlier work

Row | SMILES | Acute Toxicity (MLD), minimum lethal dose (dd strain male mice) [mg/kg] | Sarcoma 180 T/C (average tumor volume, treated/control) (Sarcoma 180 tumor cells; dose 1.0 mg/kg) | other results
1 | COc1c(O)c2c(c3cc(C(=O)N4CCc5c4c(O)c(OC)c4[nH]c(C(=O)N6CC7CC78C6=CC(=O)c6[nH]cc(C)c68)cc54)[nH]c13)CCN2C(N)=O (centres unmarked) [CC-1065] | – | – | anti-tumor activity [1]: exhibit anti-tumor activity
2 | COC(=O)c1c(C)[nH]c2c(O[Si](C)(C)C(C)(C)C)cc3c(c12)C(CBr)CN3C(=O)c1cc2cc(OC)c(OC)c(OC)c2[nH]1 (centres unmarked) [Compound 1] | 1.0 | – | Sarcoma 180 T/C (average tumor volume, treated/control) (Sarcoma 180 tumor cells; dose 0.25 mg/kg): 0.043
3 | COC(=O)c1c(C)[nH]c2c(O)cc3c(c12)C(CCl)CN3C(=O)c1cc2cc(OC)c(OC)c(OC)c2[nH]1 (centres unmarked) [Compound 2] | 1.0 | – | –
4 | COC(=O)c1c(C)[nH]c2c1C13CC1CN(C(=O)c1cc4cc(OC)c(OC)c(OC)c4[nH]1)C3=CC2=O (centres unmarked) [Compound 4] | 0.5 | – | Sarcoma 180 T/C (average tumor volume, treated/control) (Sarcoma 180 tumor cells; dose 0.25 mg/kg): 0.21
5 | COC(=O)c1c(C)[nH]c2c(OC(=O)N(C)C)cc3c(c12)C(CBr)CN3C(=O)c1cc2cc(OC)c(OC)c(OC)c2[nH]1 (centres unmarked) [Compound 13] | 1.0 | 0.063 | –
6 | COC(=O)c1c(C)[nH]c2c(OC(=O)N3CCCCC3)cc3c(c12)C(CBr)CN3C(=O)c1cc2cc(OC)c(OC)c(OC)c2[nH]1 (centres unmarked) [Compound 14] | 1.0 | 0.098 | Sarcoma 180 T/C (average tumor volume, treated/control) (Sarcoma 180 tumor cells; dose 0.50 mg/kg): 0.20
7 | COC(=O)c1c(C)[nH]c2c(OC(=O)N3CCCC3)cc3c(c12)C(CBr)CN3C(=O)c1cc2cc(OC)c(OC)c(OC)c2[nH]1 (centres unmarked) [Compound 15] | 1.0 | 0.088 | Sarcoma 180 T/C (average tumor volume, treated/control) (Sarcoma 180 tumor cells; dose 0.50 mg/kg): 0.21
8 | COC(=O)c1c(C)[nH]c2c(OC(=O)N3CCN(C)CC3)cc3c(c12)C(CBr)CN3C(=O)c1cc2cc(OC)c(OC)c(OC)c2[nH]1 (centres unmarked) [Compound 16] | 1.0 | – | Sarcoma 180 T/C (average tumor volume, treated/control) (Sarcoma 180 tumor cells; dose 0.50 mg/kg, 0.5 mg/kg): 0.24
9 | COC(=O)c1c(C)[nH]c2c(OC(=O)N3CCN(C)CC3)cc3c(c12)C(CBr)CN3C(=O)c1cc2cc(OC)c(OC)c(OC)c2[nH]1 (centres unmarked) [Compound 18] | 0.84 | – | Sarcoma 180 T/C (average tumor volume, treated/control) (Sarcoma 180 tumor cells; dose 0.50 mg/kg, 0.5 mg/kg): 0.14
10 | COC(=O)C1(C)NC2=C(C1=O)C13CC1CN(C(=O)c1cc4cc(OC)c(OC)c(OC)c4[nH]1)C3=CC2=O (centres unmarked) [DC-88A] | – | – | antibacterial activity (various bacteria): antibacterial activity against various bacteria; anti-tumor activity against lymphocytic leukemia P388 [2]: anti-tumor activity against lymphocytic leukemia P388
